Laboratory results as given in ChEMBL document CHEMBL1139502, “Oxazine 170 induces DNA:RNA:DNA triplex formation” (J Med Chem, 2005).

Test system: Nucleic Acid
Assay: Apparent binding constant towards calf thymus DNA
Assay type: nucleic-acid assay
Conditions: Bos taurus

## CC/N=c1/cc2oc3cc(NCC)c(C)cc3nc-2c2ccccc12
  K app: 26000 M⁻¹
